Results: PMC11742003, “Co-expression of the RPS6KB1 and PDPK1 genes for production of activated p70S6K1 using bac-to-bac baculovirus expression system” (Molecular Biology Reports, 2025)

Molecular target: T1, p70S6K1 (His-actS6K1; Ribosomal protein S6 kinase 1) (Homo sapiens, UniProt P23443, T412D)
T1 construct: gene RPS6KB1; 6xHis-tagged S6K1 residues 3-398 (ΔAID), phosphorylated at T229 by co-expressed PDPK1(ΔPH)
Assay: AlphaScreen kinase assay with biotinylated rpS6 peptide, […] ATP, purified enzyme
Format: biochemical

T1 sequence (P23443 26-421 T412D): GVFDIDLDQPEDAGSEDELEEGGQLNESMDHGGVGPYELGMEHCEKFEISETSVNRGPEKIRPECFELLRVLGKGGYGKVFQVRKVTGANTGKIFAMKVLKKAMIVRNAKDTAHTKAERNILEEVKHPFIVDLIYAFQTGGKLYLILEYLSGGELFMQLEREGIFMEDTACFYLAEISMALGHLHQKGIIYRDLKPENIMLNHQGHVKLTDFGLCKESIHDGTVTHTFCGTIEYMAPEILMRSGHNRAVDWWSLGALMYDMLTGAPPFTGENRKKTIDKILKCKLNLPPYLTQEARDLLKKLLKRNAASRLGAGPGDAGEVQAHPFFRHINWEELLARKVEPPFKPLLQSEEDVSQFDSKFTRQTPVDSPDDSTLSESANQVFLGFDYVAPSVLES

Cn1cc(-c2ccc(F)c(C(F)(F)F)c2)nc1C1CCN(c2ncnc3[nH]ncc23)CC1 [LY2584702]
IC50: 4.2 nM
